Results as given in ChEMBL document CHEMBL5728742, “Pyrrolo-pyridine derivative compound, method for preparing same, and pharmaceutical composition containing same as active ingredient for prevention or treatment of protein kinase-related diseases” (2021).

Target: Dual specificity tyrosine-phosphorylation-regulated kinase 1A (Homo sapiens, UniProt Q13627)
Test: Then, DYRK1A kinase was added thereto, followed by mixing well. Each compound of Examples was added thereto by using acoustic technology (Echo550; nanoliter range). […] After reacting at room temperature for 2 hours, spotting was performed on P81 exchange paper. Upon completion of the reaction, kinase activity was detected using a filter-binding method.

IC50: > 100 nM
Compound: CCNc1cc(Nc2cc(F)c(C(=O)NC3CCN(C)CC3)cc2OC)nc2[nH]cc(C(F)(F)F)c12
